These results are taken from PubChem BioAssay (NCI).

Among the test systems are ACHN renal; HCC-2998 colon; HS 578T breast; K-562 leukemia; MDA-MB-435; MOLT-4 leukemia; NCI-H226 lung; SF-268 CNS; SNB-19 CNS; SNB-75 CNS.
What all share (assay): DTP human tumour cell line panel, 48 h

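Test compounds were applied to cells in 96-well plates for 48 hours at 5 doses. GI50 is the concentration that inhibits growth by half. Definition used: TGI = concentration required for complete inhibition of growth.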

Turning to `CCOC(=O)c1ccc(C(O)CC(=O)OC(C)(C)C)[nH]1` (stereo not given), the GI50 in the test with ACHN renal is 41.5 µM; with HCC-2998 colon, 33 µM; in the test with HS 578T breast, 48.3 µM; in the test on K-562 leukemia it was 52.6 µM; with MDA-MB-435, 24.1 µM; with MOLT-4 leukemia, 17.2 µM. Further, the GI50 was 94.1 µM in the test with NCI-H226 lung, 28.7 µM in the test with SF-268 CNS, 42.9 µM in the test on SNB-19 CNS and 37.2 µM in the test on SNB-75 CNS. The total growth inhibition concentration (TGI) with ACHN renal is greater than 100 µM; in the test on HCC-2998 colon, greater than 100 µM; in the test on HS 578T breast, greater than 100 µM; with K-562 leukemia, greater than 100 µM; with MDA-MB-435 it was 62.2 µM; with MOLT-4 leukemia it was greater than 100 µM. The TGI in the test on NCI-H226 lung, with SF-268 CNS, in the test with SNB-19 CNS and in the test with SNB-75 CNS was greater than 100 µM in each case.
On to `O=C(CCc1ccc(O)c(O)c1)c1ccc(O)c(O)c1O`, for which the TGI in the test on ACHN renal is 28.4 µM; in the test with HCC-2998 colon, greater than 100 µM; with HS 578T breast, greater than 100 µM; with K-562 leukemia, 66 µM; with MDA-MB-435 it was 62.2 µM; in the test on MOLT-4 leukemia, 89.5 µM. For the same molecule, the TGI was 36.2 µM with NCI-H226 lung, 60.6 µM in the test on SF-268 CNS, greater than 100 µM in the test on SNB-19 CNS and greater than 100 µM in the test on SNB-75 CNS.
Turning to `CN1CCN(Cc2ccc(NC(=O)c3[nH]ncc3Nc3ccnc4ccsc34)cc2)CC1`, the GI50 is 2.66 µM in the test on ACHN renal; 2.75 µM in the test with HCC-2998 colon; 2.09 µM in the test on HS 578T breast; 2.47 µM with K-562 leukemia; 3.22 µM in the test with MDA-MB-435; 2.09 µM in the test on MOLT-4 leukemia. Also, the GI50 with NCI-H226 lung is 2.35 µM; in the test with SF-268 CNS, 3.22 µM; with SNB-19 CNS, 2.81 µM; with SNB-75 CNS, 0.222 µM. Further, the TGI in the test on ACHN renal is 9.9 µM; in the test with HCC-2998 colon, 10.1 µM; in the test with HS 578T breast, 14.4 µM; in the test with K-562 leukemia, greater than 100 µM; in the test on MDA-MB-435, 17.9 µM; with MOLT-4 leukemia, 7.93 µM. The TGI amounted to 13.4 µM in the test on NCI-H226 lung, 11 µM with SF-268 CNS, 20.2 µM in the test on SNB-19 CNS and 3.54 µM in the test on SNB-75 CNS.
For `C=C1C(=O)O[C@H]2[C@H]1CC/C(COC(=O)N[C@@H](Cc1c[nH]c3ccccc13)C(=O)OC)=C\CC[C@@]1(C)O[C@@H]21`, the GI50 was 1.16 µM in the test with ACHN renal; 1.95 µM in the test on HCC-2998 colon; 4.62 µM in the test with HS 578T breast; 0.362 µM with K-562 leukemia; 1.49 µM in the test with MDA-MB-435; 1.54 µM with MOLT-4 leukemia. For the same molecule, the GI50 with NCI-H226 lung was 15.4 µM; in the test on SF-268 CNS it was 2.25 µM; in the test on SNB-19 CNS, 2.48 µM; with SNB-75 CNS, 4.45 µM. Moreover, the TGI in the test on ACHN renal is 2.44 µM; with HCC-2998 colon it was 4.01 µM; in the test with HS 578T breast it was 28.5 µM; in the test with K-562 leukemia, 5.18 µM; in the test with MDA-MB-435, 3.25 µM; in the test with MOLT-4 leukemia, 5.05 µM. The TGI with NCI-H226 lung came out at 33.5 µM; in the test on SF-268 CNS, 6.67 µM; in the test on SNB-19 CNS, 7.52 µM; in the test on SNB-75 CNS it was 19.3 µM.
For `COc1ccc2c(c1)C(=O)c1c-2c(N2CCN(C(=O)CN(C)C)CC2)nc2ccccc12`, the GI50 with ACHN renal was 16 µM; in the test on HCC-2998 colon, 15.2 µM; in the test on HS 578T breast, 11.6 µM; in the test on K-562 leukemia it was 9.17 µM; with MDA-MB-435 it was 30.2 µM; with MOLT-4 leukemia it was 5.23 µM. For the same molecule, the GI50 with NCI-H226 lung is 35.7 µM; in the test on SF-268 CNS, 17.3 µM; with SNB-19 CNS it was 16.6 µM; in the test on SNB-75 CNS, 11.8 µM. Besides, the TGI is 33.2 µM in the test on ACHN renal; 40.5 µM in the test on HCC-2998 colon; 31.9 µM in the test with HS 578T breast; greater than 100 µM in the test with K-562 leukemia; 98 µM with MDA-MB-435; 24.8 µM in the test on MOLT-4 leukemia. In addition, the TGI in the test with NCI-H226 lung was greater than 100 µM; in the test on SF-268 CNS it was 44.3 µM; in the test on SNB-19 CNS, 35.9 µM; with SNB-75 CNS, 27.7 µM.
`C=C1C(=O)O[C@H]2[C@H]1CC/C(COC(=O)NCCc1c[nH]c3ccccc13)=C\CC[C@@]1(C)O[C@@H]21`: the GI50 with ACHN renal is 1.37 µM; with HCC-2998 colon, 1.67 µM; with HS 578T breast it was 10.3 µM; with K-562 leukemia it was 0.503 µM; in the test on MDA-MB-435, 1.62 µM; in the test on MOLT-4 leukemia, 1.91 µM. Also, the GI50 in the test with NCI-H226 lung is 1.8 µM; in the test on SF-268 CNS it was 2.94 µM; in the test with SNB-19 CNS, 6.46 µM; in the test on SNB-75 CNS, 8.45 µM. Moreover, the TGI stood at 2.71 µM in the test with ACHN renal; 3.18 µM in the test with HCC-2998 colon; 38.4 µM with HS 578T breast; 10.4 µM in the test with K-562 leukemia; 3.9 µM in the test with MDA-MB-435; 6.59 µM with MOLT-4 leukemia. In addition, the TGI with NCI-H226 lung turned out to be 3.39 µM; with SF-268 CNS it was 13.5 µM; in the test on SNB-19 CNS, 20.2 µM; in the test on SNB-75 CNS, 21.8 µM.
For the molecule `Nc1nc(F)nc2c1ncn2C1OC(COP(=O)(O)O)C(O)C1O` (stereo not given), the TGI stood at 247 µM in the test on ACHN renal; 1170 µM with HCC-2998 colon; 379 µM in the test with HS 578T breast; 1070 µM with K-562 leukemia; 218 µM in the test with MDA-MB-435; 224 µM with MOLT-4 leukemia. Moreover, the TGI in the test with NCI-H226 lung is 599 µM; in the test on SF-268 CNS, 874 µM; with SNB-19 CNS, 1000 µM; in the test on SNB-75 CNS, 713 µM.
`c1cncc(-c2cc(-c3cc(-c4cccnc4)n[nH]3)[nH]n2)c1`: the TGI in the test with ACHN renal, in the test on HCC-2998 colon, with HS 578T breast, in the test with K-562 leukemia, with MDA-MB-435 and in the test on MOLT-4 leukemia was greater than 100 µM each time. Moreover, the TGI in the test with NCI-H226 lung, in the test on SF-268 CNS, in the test with SNB-19 CNS and in the test with SNB-75 CNS was greater than 100 µM each time.
`CCN(CC)CCCC(C)N/C(c1cccc(OC)c1)=c1\c(=O)[nH]n(-c2c3ccccc3nc3ccccc23)c(=O)\c1=C(/NC(C)CCCN(CC)CC)c1cccc(OC)c1` (stereo not given): the GI50 with ACHN renal was 0.508 µM; with HCC-2998 colon it was 1.44 µM; with HS 578T breast, 2.3 µM; in the test on K-562 leukemia, 1.41 µM; in the test on MDA-MB-435 it was 1.45 µM; with MOLT-4 leukemia, 0.6 µM. Further, the GI50 was 1.16 µM in the test on NCI-H226 lung, 1.4 µM with SF-268 CNS, 3.18 µM with SNB-19 CNS and 1.41 µM with SNB-75 CNS. Also, the TGI in the test with ACHN renal is 2.35 µM; in the test with HCC-2998 colon it was 2.92 µM; with HS 578T breast it was 7.28 µM; in the test with K-562 leukemia, 5.64 µM; with MDA-MB-435, 2.98 µM; in the test on MOLT-4 leukemia it was 3.89 µM. Moreover, the TGI in the test with NCI-H226 lung stood at 3.63 µM; in the test on SF-268 CNS, 4.87 µM; in the test on SNB-19 CNS, 13 µM; with SNB-75 CNS it was 2.74 µM.
